Results from patent US20150366890A1, “COMPOSITIONS AND METHODS FOR TREATING FUNGAL INFECTIONS” (TRUSTEES OF BOSTON UNIVERSITY, priority 2013, published 2015).
Read-outs that look alike come from different tables or passages of the source.

Columns and labels:
Assay type in all cases: cell-based
[1] = test system: S. cerevisiae wildtype and deletion strains
S. cerevisiae = test: Mitochondrial activity by MitoTracker Red fluorescence; conditions: drug added to glucose-incubated (SC, 2% glucose) S. cerevisiae
Method: It was next sought to assess the mitochondrial activity of AF-treated fungal cells. Yhe MitoTracker Red dye, which enters the mitochondrial matrix by utilizing the proton motive force and thus labels metabolically active mitochondria in viable cells was used (Arita et al., 2006; Tomas et al., 2011). Exponential phase S. cerevisiae were incubated in glucose-free synthetic complete (SC) media for 30 min and then switched to SC containing 2% glucose or non-fermentable acetate for 1.5 hours.
(§1) Overnight yeast cultures were diluted into the indicated media and grown to an OD600 of 0.2, at which point the AFs were added. Colony forming units (CFU) were measured by plating six serial dilutions onto YPD agar plates. Cells treated with MCZ were washed before serial dilution to stop growth inhibition associated with high concentrations of MCZ. CFU were counted after three days of incubation on agar plates. When indicated, thiourea (Fluka) was added 30 min prior to the addition of AFs. HPF (10 μM) (Invitrogen) and Mito Tracker (1 μM) (Invitrogen) dyes were added to PBS-washed cells at the indicated time points and incubated for 30 min prior to flow cytometry measurements, which were taken on the FACSCalibur (Becton-Dickinson). All experiments described in this section were conducted in 0.5 ml of SDC in 24-well plates incubated at 900 rpm and 37° C. for C. albicans and 30° C. and 300 rpm for S. cerevisiae. TUNEL assays were conducted as previously described (Ribeiro et al., 2006) and are described in detail in the TUNEL section of the Experimental Procedures.

[2] = test system: C. albicans wildtype and DNA repair mutants; test: Fungicidal killing, CFU assay; conditions: C. albicans rad50/rad50 and rad52/rad52, 3 hours of drug exposure
Method: Overnight yeast cultures were diluted into the indicated media and grown to an OD600 of 0.2, at which point the AFs were added. Colony forming units (CFU) were measured by plating six serial dilutions onto YPD agar plates.
as §1

C[C@@H]1[C@H](O)[C@@H](C)/C=C/C=C/C=C/C=C/C=C/C=C/C=C/[C@H](O[C@@H]2O[C@H](C)[C@@H](O)[C@H](N)[C@@H]2O)C[C@@H]2O[C@](O)(C[C@@H](O)C[C@@H](O)[C@H](O)CC[C@@H](O)C[C@@H](O)CC(=O)O[C@H]1C)C[C@H](O)[C@H]2C(=O)O [AMB, amphotericin B]
additive resistance on deleting the remaining citrate synthases in the cit3 background ([1]; S. cerevisiae CIT1/CIT2 deletions in cit3 background): additive resistance | CFU (24-well colony forming assay), AF susceptibility vs wildtype ([1]; S. cerevisiae PAB101, WT): Normal | CFU (24-well colony forming assay), AF susceptibility vs wildtype ([1]; S. cerevisiae PAB102, HSP104 deletion): Normal | CFU (24-well colony forming assay), AF susceptibility vs wildtype ([1]; S. cerevisiae PAB103, SDH2 deletion): Resistant (″Resistant″ or ″Sensitive″ indicate at least a 5-fold CFU difference from wildtype at the final time point) | CFU (24-well colony forming assay), AF susceptibility vs wildtype ([1]; S. cerevisiae PAB104, FRE8 deletion): Resistant (″Resistant″ or ″Sensitive″ indicate at least a 5-fold CFU difference from wildtype at the final time point) | CFU (24-well colony forming assay), AF susceptibility vs wildtype ([1]; S. cerevisiae PAB105, CHA4 deletion): Resistant (″Resistant″ or ″Sensitive″ indicate at least a 5-fold CFU difference from wildtype at the final time point) | CFU (24-well colony forming assay), AF susceptibility vs wildtype ([1]; S. cerevisiae PAB106, FMS1 deletion): Resistant (″Resistant″ or ″Sensitive″ indicate at least a 5-fold CFU difference from wildtype at the final time point) | CFU (24-well colony forming assay), AF susceptibility vs wildtype ([1]; S. cerevisiae PAB107, NDE1 deletion): Resistant (″Resistant″ or ″Sensitive″ indicate at least a 5-fold CFU difference from wildtype at the final time point) | CFU (24-well colony forming assay), AF susceptibility vs wildtype ([1]; S. cerevisiae PAB108, ALD3 deletion): Normal | CFU (24-well colony forming assay), AF susceptibility vs wildtype ([1]; S. cerevisiae PAB112, MNE1 deletion): Resistant (″Resistant″ or ″Sensitive″ indicate at least a 5-fold CFU difference from wildtype at the final time point) | CFU (24-well colony forming assay), AF susceptibility vs wildtype ([1]; S. cerevisiae PAB113, FUM1 deletion): Resistant (″Resistant″ or ″Sensitive″ indicate at least a 5-fold CFU difference from wildtype at the final time point) | CFU (24-well colony forming assay), AF susceptibility vs wildtype ([1]; S. cerevisiae PAB114, TPK2 deletion): Resistant (″Resistant″ or ″Sensitive″ indicate at least a 5-fold CFU difference from wildtype at the final time point) | CFU (24-well colony forming assay), AF susceptibility vs wildtype ([1]; S. cerevisiae PAB116, ISU1 deletion): Normal | CFU (24-well colony forming assay), AF susceptibility vs wildtype ([1]; S. cerevisiae PAB117, CYC7 deletion): Normal | CFU (24-well colony forming assay), AF susceptibility vs wildtype ([1]; S. cerevisiae PAB119, CIT2 deletion): Resistant (″Resistant″ or ″Sensitive″ indicate at least a 5-fold CFU difference from wildtype at the final time point) | CFU (24-well colony forming assay), AF susceptibility vs wildtype ([1]; S. cerevisiae PAB120, HSP30 deletion): Normal | CFU (24-well colony forming assay), AF susceptibility vs wildtype ([1]; S. cerevisiae PAB121, SDH1 deletion): Resistant (″Resistant″ or ″Sensitive″ indicate at least a 5-fold CFU difference from wildtype at the final time point) | CFU (24-well colony forming assay), AF susceptibility vs wildtype ([1]; S. cerevisiae PAB122, TPK3 deletion): Resistant (″Resistant″ or ″Sensitive″ indicate at least a 5-fold CFU difference from wildtype at the final time point) | CFU (24-well colony forming assay), AF susceptibility vs wildtype ([1]; S. cerevisiae PAB123, ISU2 deletion): Normal | CFU (24-well colony forming assay), AF susceptibility vs wildtype ([1]; S. cerevisiae PAB124, TPK1 deletion): Resistant (″Resistant″ or ″Sensitive″ indicate at least a 5-fold CFU difference from wildtype at the final time point) | CFU (24-well colony forming assay), AF susceptibility vs wildtype ([1]; S. cerevisiae PAB132, CIT3 deletion): Resistant (″Resistant″ or ″Sensitive″ indicate at least a 5-fold CFU difference from wildtype at the final time point) | CFU (24-well colony forming assay), AF susceptibility vs wildtype ([1]; S. cerevisiae PAB135, NDI1 deletion): Resistant (″Resistant″ or ″Sensitive″ indicate at least a 5-fold CFU difference from wildtype at the final time point) | CFU (24-well colony forming assay), AF susceptibility vs wildtype ([1]; S. cerevisiae PAB145, CIT1 deletion): Resistant (″Resistant″ or ″Sensitive″ indicate at least a 5-fold CFU difference from wildtype at the final time point) | CFU (24-well colony forming assay), AF susceptibility vs wildtype ([1]; S. cerevisiae PAB149, YAK1 deletion): Sensitive (″Resistant″ or ″Sensitive″ indicate at least a 5-fold CFU difference from wildtype at the final time point) | CFU (24-well colony forming assay), AF susceptibility vs wildtype ([1]; S. cerevisiae PAB153, SHO1 deletion): Sensitive (″Resistant″ or ″Sensitive″ indicate at least a 5-fold CFU difference from wildtype at the final time point) | CFU (24-well colony forming assay), AF susceptibility vs wildtype ([1]; S. cerevisiae PAB155, FBP1 deletion): Sensitive (″Resistant″ or ″Sensitive″ indicate at least a 5-fold CFU difference from wildtype at the final time point) | CFU (24-well colony forming assay), AF susceptibility vs wildtype ([1]; S. cerevisiae PAB158, MSN4 deletion): Normal | CFU (24-well colony forming assay), AF susceptibility vs wildtype ([1]; S. cerevisiae PAB161, MSN2 deletion): Normal | CFU (24-well colony forming assay), AF susceptibility vs wildtype ([1]; S. cerevisiae PAB162, YAP1 deletion): Normal | CFU (24-well colony forming assay), AF susceptibility vs wildtype ([1]; S. cerevisiae PAB163, CIN5 deletion): Normal | CFU (24-well colony forming assay), AF susceptibility vs wildtype ([1]; S. cerevisiae PAB164, Pde2 deletion): Normal | CFU (24-well colony forming assay), AF susceptibility vs wildtype ([1]; S. cerevisiae PAB165, USV1 deletion): Normal | CFU (24-well colony forming assay), AF susceptibility vs wildtype ([1]; S. cerevisiae PAB166, CAD1 deletion): Normal | CFU (24-well colony forming assay), AF susceptibility vs wildtype ([1]; S. cerevisiae PAB167, RIM101 deletion): Normal | CFU (24-well colony forming assay), AF susceptibility vs wildtype ([1]; S. cerevisiae PAB168, RAS1 deletion): Resistant (″Resistant″ or ″Sensitive″ indicate at least a 5-fold CFU difference from wildtype at the final time point) | CFU (24-well colony forming assay), AF susceptibility vs wildtype ([1]; S. cerevisiae PAB169, HYR1 deletion): Resistant (″Resistant″ or ″Sensitive″ indicate at least a 5-fold CFU difference from wildtype at the final time point) | CFU (24-well colony forming assay), AF susceptibility vs wildtype ([1]; S. cerevisiae PAB170, CRZ1 deletion): Normal | CFU (24-well colony forming assay), AF susceptibility vs wildtype ([1]; S. cerevisiae PAB171, RAS2 deletion): Resistant (″Resistant″ or ″Sensitive″ indicate at least a 5-fold CFU difference from wildtype at the final time point) | CFU (24-well colony forming assay), AF susceptibility vs wildtype ([1]; S. cerevisiae PAB172, XBP1 deletion): Normal | CFU (24-well colony forming assay), AF susceptibility vs wildtype ([1]; S. cerevisiae PAB173, SRV2 deletion): Normal | CFU (24-well colony forming assay), AF susceptibility vs wildtype ([1]; S. cerevisiae PAB174, TPS3 deletion): Resistant (″Resistant″ or ″Sensitive″ indicate at least a 5-fold CFU difference from wildtype at the final time point) | CFU (24-well colony forming assay), AF susceptibility vs wildtype ([1]; S. cerevisiae PAB175, TPS2 deletion): Sensitive (″Resistant″ or ″Sensitive″ indicate at least a 5-fold CFU difference from wildtype at the final time point) | CFU (24-well colony forming assay), AF susceptibility vs wildtype ([1]; S. cerevisiae PAB177, SOD2 deletion): Normal | CFU (24-well colony forming assay), AF susceptibility vs wildtype ([1]; S. cerevisiae PAB178, CTA1 deletion): Normal | CFU (24-well colony forming assay), AF susceptibility vs wildtype ([1]; S. cerevisiae PAB179, CTT1 deletion): Normal | CFU (24-well colony forming assay), AF susceptibility vs wildtype ([1]; S. cerevisiae PAB180, MET1 deletion): Normal | CFU (24-well colony forming assay), AF susceptibility vs wildtype ([1]; S. cerevisiae PAB181, TVP18 deletion): Normal | CFU (24-well colony forming assay), AF susceptibility vs wildtype ([1]; S. cerevisiae PAB182, PML39 deletion): Normal | CFU (24-well colony forming assay), AF susceptibility vs wildtype ([1]; S. cerevisiae PAB183, VPS9 deletion): Normal | higher drug concentration required by citrate synthase triple mutant to achieve the sensitivity of the single mutants ([1]; S. cerevisiae cit1 cit2 cit3 triple mutant, 3 hours of drug exposure): more than 8 fold | reduction of killing at 3 hours by thiourea ([1]; S. cerevisiae, 50 mM thiourea for 30 minutes prior to the addition of AF drugs): ~15 fold | increase of MitoTracker fluorescence (S. cerevisiae): 60 fold | susceptibility of DSBR mutants compared to wildtype [2]: particularly susceptible
